In patent publication US8937183B2, “Detection of hydrogen peroxide” (Promega Corporation, priority 2011, dated 2015):

How the values were obtained:
HepG2 cells = test: Detection of reactive oxygen generation in cells treated with menadione or 4-aminobiphenyl, HepG2; format: cell-based; settings: for response of signal to menadione or 4-aminobiphenyl (in words): HepG2; for averaged bioluminescence: 60 minutes 37° C.
Experimental: (§1) In this example, various compounds shown to react with hydrogen peroxide were incubated with cells treated with menadione and 4-aminobiphenyl, two compounds that can generate reactive oxygen species (ROS). Menadione causes the direct production of reactive oxygen within the cell and is a very strong inducer of a ROS effect (Sun, J S et. al. Cell Mol Life Sci (1997) vol 53 pp 967-76). 4-aminobiphenyl is believed to require metabolic conversion to a quinine-like structure before being able to induce the formation of a ROS (Makena, P and Chung, K T. Environ. Mol. Mutagen. (2007), vol 48, pp 404-413).
(§2) A 40 mM solution of 4-aminobiphenyl (Sigma A2898-1g) was made by dissolving 2.5 mg in 375 μl of DMSO (Fluka) to create a 40 mM solution. 50 μl of 4 mg/ml PBI 4458 in DMSO was diluted to 1 ml with HBSS buffer (Invitrogen), and 100 μl added to wells A1 and A2 of a microtiter plate. A 10 μl sample of 40 mM 4-aminobiphenyl was mixed with 190 μl of the remaining PBI 4458 in HBSS, and 60 μl added to wells B1 and B2 and 30 μl to wells C1 and C2. A 10 μl sample of 40 mM menadione in DMSO was mixed with 190 μl of the remaining PBI 4458 in HBSS, and 60 μl added to wells D1 and D2 and 30 μl to E1 and E2. The volume in wells B1 to E2 was then adjusted to 100 μl by addition of remaining PBI 4458 in HBSS.
(§3) 50 μl of 4 mg/ml PBI 4480 in DMSO was diluted to 1 ml with HBSS buffer, and 100 μl placed in wells A3 and A4 of the microtiter plate. A 10 μl sample of 40 mM 4 aminobiphenyl was mixed with 190 μl of the remaining PBI 4480 in HBSS, and 60 μl added to wells B3 and B4 and 30 μl to wells C3 and C4. A 10 μl sample of 40 mM menadione in DMSO was mixed with 190 μl of the remaining PBI 4480 in HBSS, and 60 μl added to wells D3 and D4 and 30 μl added to wells E3 and E4. The volume in wells B3 to E4 was then adjusted to 100 μl by addition of left over PBI 4480 in HBSS.
(§4) 50 μl of 4 mg/ml PBI 3048 in DMSO was diluted to 1 ml with HBSS, and 100 μl added to wells A5 and A6 of the microtiter plate. A 10 μl sample of 40 mM 4 aminobiphenyl was mixed with 190 μl of the remaining PBI 3048 in HBSS, and 60 μl added to wells B5 and B6 and 30 μl added to wells C5 and C6. A 10 μl sample of 40 mM menadione in DMSO was mixed with 190 μl of the remaining PBI 3048 in HBSS, and 60 μl added to wells D5 and D6 and 30 μl added to wells E5 and E6. The volume in wells B5 to E6 was then adjusted to 100 μl by addition of the remaining PBI 3048 in HBSS.
(§5) Two cell culture plates were seeded with cells resuspended in HBSS. One plate contained 20,000 Jurkat cells/well in wells A1-H6. The other plate contained 20,000 HepG2 cells/well in wells A1-H6. Both plates were incubated overnight in DMEM with 10% fetal bovine serum (FBS). The media from the HepG2 cells was removed, discarded, and replaced with 50 μl of HBSS. A 50 μl sample of wells A1-H6 from the plate with the various PBI compounds was transferred to the corresponding wells in the two cell culture plates, and incubated for 60 minutes in a 37° C., 5% CO2 incubator.
(§6) 50 μl of LDR (Example 23) and 25 μl of 1 mM D-cysteine in 100 mM HEPES buffer, pH 7.5 was added to all wells of a new luminometer plate. After incubation, a 25 μl sample of wells A1-H6 containing Jurkat cells was added to wells A1-H6 of the new luminometer plate, and a 25 μl sample of wells A1-H6 containing HepG2 cells was added to wells A7-H12 of the new luminometer plate. The plate was incubated at room temperature for 15 minutes, and bioluminescence detected on a GloMax® luminometer.
(§7) The bioluminescence from the duplicate samples was averaged and compared to the values of the cells in A row (Table 4).

Jurkat cells = test: Detection of reactive oxygen generation in cells treated with menadione or 4-aminobiphenyl, Jurkat; format: cell-based; settings: for averaged bioluminescence: 60 minutes 37° C.
Experimental: as §1, §2, §3, §4, §5, §6, §7

| SMILES | response of signal to menadione or 4-aminobiphenyl (in words) (HepG2 cells) | averaged bioluminescence (HepG2 cells; HepG2, 300 μM 4ABP) | averaged bioluminescence (HepG2 cells; HepG2, 300 μM Menadione) | averaged bioluminescence (HepG2 cells; HepG2, 600 μM 4ABP) | averaged bioluminescence (HepG2 cells; HepG2, 600 μM Menadione) | averaged bioluminescence (HepG2 cells; HepG2, No Effector) | response of signal to menadione or 4-aminobiphenyl (in words) (Jurkat cells) | averaged bioluminescence (Jurkat cells; 300 μM 4ABP) | averaged bioluminescence (Jurkat cells; 300 μM Menadione) | averaged bioluminescence (Jurkat cells; 600 μM 4ABP) | averaged bioluminescence (Jurkat cells; 600 μM Menadione) | averaged bioluminescence (Jurkat cells; No Effector) |
| --- | --- | --- | --- | --- | --- | --- | --- | --- | --- | --- | --- | --- |
| CC1(C)OB(/C=C/COc2ccc3nc(C#N)sc3c2)OC1(C)C [PBI 4458, (E)-6-((3-(4,4,5,5-tetramethyl-1,3,2-dioxaborolan-2-yl)allyl)oxy)-benzo[d]thiazole-2-carbonitrile] | above those for the cells that were not given any effector | 163,031 | 622,230 | 169,952 | 728,404 | 117,111 | above those for the cells that were not given any effector | 213,059 | 742,717 | 195,096 | 895,269 | 174,206 |
| CC1(C)OB(c2ccc(COc3ccc4nc(C#N)sc4c3)c3ccccc23)OC1(C)C [PBI 4480, 6-((4-(4,4,5,5-tetramethyl-1,3,2-dioxaborolan-2-yl)naphthalen-1-yl)methoxy)benzo[d]thiazole-2-carbonitrile] | do not show as clear of a response | 20,574 | 20,788 | 21,023 | 20,509 | 19,627 | do not show as clear of a response | 29,810 | 29,806 | 29,277 | 27,535 | 34,646 |
| O=C(O)C1CSC(c2nc3ccc(OCc4ccc(B(O)O)cc4)cc3s2)=N1 (stereo not drawn) [PBI 3048] | do not show as clear of a response | 364,353 | 426,802 | 383,471 | 408,177 | 407,917 | do not show as clear of a response | 363,182 | 434,344 | 366,188 | 403,013 | 413,753 |
